From patent US20230295197A1, “STAT5 and STAT6 Degraders and Uses Thereof” (REGENTS OF THE UNIVERSITY OF MICHICAN, priority 2022, published 2023) come the findings set out here.

Like-named read-outs stand apart in the source and are kept apart here.

The subject of one test is STAT5. The experiment in a line: Immunoblotting (Western blot) analysis of STAT5 degradation efficiency of degraders in treated cells. Format: cell-based. The procedure, abridged: (§1)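 ~1e6 cells/pt; cpd at indicated conc and duration; RIPA + protease/phosphatase inhibitors; BCA; 20-40 μg/lane Tris-glycine SDS-PAGE; PVDF; primary Ab 1:1000 o/n 4 °C; IRDye secondaries 1 h rt; infrared scan and densitometry; GAPDH loading ctrl.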

Another test addresses T1, STAT6 (Homo sapiens, UniProt P42226).
T1 construct: endogenous in cells; host or cells: MOLM-16, KU-812, SKNO1, MB231, L1236
T1 sequence (P42226 1-847): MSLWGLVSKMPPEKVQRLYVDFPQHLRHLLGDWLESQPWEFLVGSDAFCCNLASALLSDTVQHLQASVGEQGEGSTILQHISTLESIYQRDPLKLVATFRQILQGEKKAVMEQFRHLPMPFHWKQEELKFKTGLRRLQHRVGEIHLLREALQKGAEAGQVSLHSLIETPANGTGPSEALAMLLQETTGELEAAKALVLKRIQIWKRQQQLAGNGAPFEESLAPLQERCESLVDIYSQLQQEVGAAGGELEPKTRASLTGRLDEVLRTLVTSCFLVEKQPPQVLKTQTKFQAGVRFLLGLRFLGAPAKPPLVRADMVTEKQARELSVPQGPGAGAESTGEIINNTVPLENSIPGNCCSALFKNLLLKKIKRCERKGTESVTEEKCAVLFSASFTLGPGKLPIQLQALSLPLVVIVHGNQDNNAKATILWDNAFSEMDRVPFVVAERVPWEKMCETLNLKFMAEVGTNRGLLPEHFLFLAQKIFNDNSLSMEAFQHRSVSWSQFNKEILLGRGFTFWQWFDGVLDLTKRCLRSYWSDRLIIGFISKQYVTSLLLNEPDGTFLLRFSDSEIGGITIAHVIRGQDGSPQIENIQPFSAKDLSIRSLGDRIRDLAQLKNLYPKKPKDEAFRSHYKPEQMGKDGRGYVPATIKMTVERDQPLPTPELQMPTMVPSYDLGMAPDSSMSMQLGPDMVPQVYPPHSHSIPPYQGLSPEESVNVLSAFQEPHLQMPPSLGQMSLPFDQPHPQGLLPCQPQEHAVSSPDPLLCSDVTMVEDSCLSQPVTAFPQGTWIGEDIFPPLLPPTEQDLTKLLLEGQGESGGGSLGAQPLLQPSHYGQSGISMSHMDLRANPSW
The experiment in a line: Immunoblotting (Western blot) analysis of STAT6 degradation efficiency of degraders in treated cells. In kind it is cell-based. As to conditions: MOLM-16 cells, read-out: DC50 S6 MOLM-16. The procedure, abridged:
as §1
For orientation: In western blotting, separated proteins are transferred to a membrane and probed.

The mark [1] stands for this setting: MOLM-16 cells, numeric bound, read-out: DC50 S5 MOLM-16.
[2] abbreviates: SKNO1 cells, read-out: DC50 S5 SKNO1.
The mark [3] stands for this setting: MOLM-16 cells, class symbols, read-out: DC50 S5 MOLM-16.
The mark [4] stands for this setting: KU-812 cells, read-out: DC50 S5 KU-812.

On to `CC(C)(C)[C@H](NC(=O)c1cc2cc(C(F)(F)P(=O)(O)O)ccc2s1)C(=O)N1CCC[C@H]1C(=O)N(CCCCCCCC#Cc1cccc2c1CN(C1CCC(=O)NC1=O)C2=O)c1ccc(-c2nccs2)cc1` (stereo partly drawn) [Compound 670, ((2-(((2S)-1-((2S)-2-((9-(2-(2,6-dioxopiperidin-3-yl)-1-oxoisoindolin-4-yl)non-8-yn-1-yl)(4-(thiazol-2-yl)phenyl)carbamoyl)pyrrolidin-1-yl)-3,3-dimethyl-1-oxobutan-2-yl)carbamoyl)benzo[b]thiophen-5-yl)difluoromethyl)phosphonic acid], for which the DC50 (usually the midpoint of the concentration-degradation curve) is above 300 nM with STAT5 (setting [1]), above 10000 nM in the test on STAT5 (setting [2]) and above 300 nM at STAT6 (numeric bound).
Consider `CN(CCCC#Cc1cccc2c1CN(C1CCC(=O)NC1=O)C2=O)C(=O)CCN(C(=O)[C@@H]1CCCN1C(=O)[C@@H](NC(=O)c1cc2cc(C(F)(F)P(=O)(O)OCOC(=O)C(C)(C)C)ccc2s1)C(C)(C)C)c1ccc2sccc2c1` (stereo partly drawn) [Compound 671, ((((2-(((2S)-1-((2S)-2-(benzo[b]thiophen-5-yl(3-((5-(2-(2,6-dioxopiperidin-3-yl)-1-oxoisoindolin-4-yl)pent-4-yn-1-yl)(methyl)amino)-3-oxopropyl)carbamoyl)pyrrolidin-1-yl)-3,3-dimethyl-1-oxobutan-2-yl)carbamoyl)benzo[b]thiophen-5-yl)difluoromethyl)(hydroxy)phosphoryl)oxy)methyl pivalate], for which the 50% degradation concentration (DC50) was below 100 nM in the test on STAT5 (setting [3]) and above 300 nM on STAT6 (numeric bound).
As to `CN(CCCC#Cc1cccc2c1CN(C1CCC(=O)NC1=O)C2=O)C(=O)CCN(C(=O)[C@@H]1CCCN1C(=O)[C@@H](NC(=O)c1cc2cc(C(F)(F)P(=O)(O)OCOC(=O)C(C)(C)C)ccc2s1)C(C)(C)C)c1ccc2occc2c1` (stereo partly drawn) [Compound 672, ((((2-(((2S)-1-((2S)-2-(benzofuran-5-yl(3-((5-(2-(2,6-dioxopiperidin-3-yl)-1-oxoisoindolin-4-yl)pent-4-yn-1-yl)(methyl)amino)-3-oxopropyl)carbamoyl)pyrrolidin-1-yl)-3,3-dimethyl-1-oxobutan-2-yl)carbamoyl)benzo[b]thiophen-5-yl)difluoromethyl)(hydroxy)phosphoryl)oxy)methyl pivalate], the DC50 in the test on STAT5 (setting [3]) was below 100 nM; at STAT6 (numeric bound) it was above 300 nM.
Turning to `CN(CCCC#Cc1cccc2c1CN(C1CCC(=O)NC1=O)C2=O)C(=O)CCN(C(=O)[C@@H]1CCCN1C(=O)[C@@H](NC(=O)c1cc2cc(C(F)(F)P(=O)(O)OCOC(=O)C(C)(C)C)ccc2s1)C(C)(C)C)c1ccc2ccccc2c1` (stereo partly drawn) [Compound 673, ((((2-(((2S)-1-((2S)-2-((3-((5-(2-(2,6-dioxopiperidin-3-yl)-1-oxoisoindolin-4-yl)pent-4-yn-1-yl)(methyl)amino)-3-oxopropyl)(naphthalen-2-yl)carbamoyl)pyrrolidin-1-yl)-3,3-dimethyl-1-oxobutan-2-yl)carbamoyl)benzo[b]thiophen-5-yl)difluoromethyl)(hydroxy)phosphoryl)oxy)methyl pivalate], the DC50 in the test on STAT5 (setting [3]) was below 100 nM; on STAT6 (numeric bound) it was above 300 nM.
The corresponding values for `CN(CCCC#Cc1cccc2c1CN(C1CCC(=O)NC1=O)C2=O)C(=O)CCN(C(=O)[C@@H]1CCCN1C(=O)[C@@H](NC(=O)c1cc2cc(C(F)(F)P(=O)(O)OCOC(=O)C(C)(C)C)ccc2s1)C(C)(C)C)c1ccc2ccoc2c1` (stereo partly drawn) [Compound 674, ((((2-(((2S)-1-((2S)-2-(benzofuran-6-yl(3-((5-(2-(2,6-dioxopiperidin-3-yl)-1-oxoisoindolin-4-yl)pent-4-yn-1-yl)(methyl)amino)-3-oxopropyl)carbamoyl)pyrrolidin-1-yl)-3,3-dimethyl-1-oxobutan-2-yl)carbamoyl)benzo[b]thiophen-5-yl)difluoromethyl)(hydroxy)phosphoryl)oxy)methyl pivalate] are below 100 nM and above 300 nM.
On to `CN(CCCC#Cc1cccc2c1CN(C1CCC(=O)NC1=O)C2=O)C(=O)CCN(C(=O)[C@@H]1CCCN1C(=O)[C@@H](NC(=O)c1cc2cc(C(F)(F)P(=O)(O)OCOC(=O)C(C)(C)C)ccc2s1)C(C)(C)C)c1ccc2cc(F)ccc2c1` (stereo partly drawn) [Compound 675, ((((2-(((2S)-1-((2S)-2-((3-((5-(2-(2,6-dioxopiperidin-3-yl)-1-oxoisoindolin-4-yl)pent-4-yn-1-yl)(methyl)amino)-3-oxopropyl)(6-fluoronaphthalen-2-yl)carbamoyl)pyrrolidin-1-yl)-3,3-dimethyl-1-oxobutan-2-yl)carbamoyl)benzo[b]thiophen-5-yl)difluoromethyl)(hydroxy)phosphoryl)oxy)methyl pivalate], for which the figures for the half-maximal degradation concentration (DC50) in the test on STAT5 (setting [3]) and at STAT6 (numeric bound) were 100 to 1000 nM and above 300 nM, respectively.
As for `CN(CCCC#Cc1cccc2c1CN(C1CCC(=O)NC1=O)C2=O)C(=O)CCN(C(=O)[C@@H]1CCCN1C(=O)[C@@H](NC(=O)c1cc2cc(C(F)(F)P(=O)(O)OCOC(=O)C(C)(C)C)ccc2s1)C(C)(C)C)c1ccc2scnc2c1` (stereo partly drawn) [Compound 676, ((((2-(((2S)-1-((2S)-2-(benzo[d]thiazol-5-yl(3-((5-(2-(2,6-dioxopiperidin-3-yl)-1-oxoisoindolin-4-yl)pent-4-yn-1-yl)(methyl)amino)-3-oxopropyl)carbamoyl)pyrrolidin-1-yl)-3,3-dimethyl-1-oxobutan-2-yl)carbamoyl)benzo[b]thiophen-5-yl)difluoromethyl)(hydroxy)phosphoryl)oxy)methyl pivalate], the values for the DC50 with STAT5 (setting [3]) and at STAT6 (numeric bound) were below 100 nM and above 300 nM, respectively.
`CN(CCCC#Cc1cccc2c1CN(C1CCC(=O)NC1=O)C2=O)C(=O)CCN(C(=O)[C@@H]1CCCN1C(=O)[C@@H](NC(=O)c1cc2cc(C(F)(F)P(=O)(O)OCOC(=O)C(C)(C)C)ccc2s1)C(C)(C)C)c1ccc(Br)cc1` (stereo partly drawn) [Compound 677, ((((2-(((2S)-1-((2S)-2-((4-bromophenyl)(3-((5-(2-(2,6-dioxopiperidin-3-yl)-1-oxoisoindolin-4-yl)pent-4-yn-1-yl)(methyl)amino)-3-oxopropyl)carbamoyl)pyrrolidin-1-yl)-3,3-dimethyl-1-oxobutan-2-yl)carbamoyl)benzo[b]thiophen-5-yl)difluoromethyl)(hydroxy)phosphoryl)oxy)methyl pivalate]: the DC50 in the test with STAT5 (setting [3]) was below 100 nM; on STAT6 (numeric bound) it was above 300 nM.
For `CC(C)(C)C(=O)OCOP(=O)(O)C(F)(F)c1ccc2sc(C(=O)N[C@H](C(=O)N3CCC[C@H]3C(=O)N(CCOCCOCC#Cc3cccc4c3CN(C3CCC(=O)NC3=O)C4=O)c3ccc4ccccc4c3)C(C)(C)C)cc2c1` (stereo partly drawn) [Compound 678, ((((2-(((2S)-1-((2S)-2-((2-(2-((3-(2-(2,6-dioxopiperidin-3-yl)-1-oxoisoindolin-4-yl)prop-2-yn-1-yl)oxy)ethoxy)ethyl)(naphthalen-2-yl)carbamoyl)pyrrolidin-1-yl)-3,3-dimethyl-1-oxobutan-2-yl)carbamoyl)benzo[b]thiophen-5-yl)difluoromethyl)(hydroxy)phosphoryl)oxy)methyl pivalate], the DC50 with STAT5 (setting [1]) and at STAT6 (numeric bound) was above 300 nM throughout.
Turning to `CN(CCCC#Cc1cccc2c1CN(C1CCC(=O)NC1=O)C2=O)C(=O)CCN(C(=O)[C@@H]1CCCN1C(=O)[C@@H](NC(=O)c1cc2cc(C(F)(F)P(=O)(O)OCOC(=O)C(C)(C)C)ccc2s1)C(C)(C)C)c1ccc(-c2nccs2)cc1` (stereo partly drawn) [Compound 679, ((((2-(((2S)-1-((2S)-2-((3-((5-(2-(2,6-dioxopiperidin-3-yl)-1-oxoisoindolin-4-yl)pent-4-yn-1-yl)(methyl)amino)-3-oxopropyl)(4-(thiazol-2-yl)phenyl)carbamoyl)pyrrolidin-1-yl)-3,3-dimethyl-1-oxobutan-2-yl)carbamoyl)benzo[b]thiophen-5-yl)difluoromethyl)(hydroxy)phosphoryl)oxy)methyl pivalate], the values for the DC50 with STAT5 (setting [4]), in the test on STAT5 (setting [3]) and on STAT6 (class symbols) were 100 to 1000 nM, below 100 nM and above 10000 nM, respectively.
With `CN(CCCC#Cc1cccc2c1CN(C1CCC(=O)NC1=O)C2=O)C(=O)CCN(C(=O)[C@@H]1CCCN1C(=O)[C@@H](NC(=O)c1cc2cc(C(F)(F)P(=O)(O)O)ccc2s1)C(C)(C)C)c1ccc2ccccc2c1` (stereo partly drawn) [Compound 680, ((2-(((2S)-1-((2S)-2-((3-((5-(2-(2,6-dioxopiperidin-3-yl)-1-oxoisoindolin-4-yl)pent-4-yn-1-yl)(methyl)amino)-3-oxopropyl)(naphthalen-2-yl)carbamoyl)pyrrolidin-1-yl)-3,3-dimethyl-1-oxobutan-2-yl)carbamoyl)benzo[b]thiophen-5-yl)difluoromethyl)phosphonic acid], the DC50 in the test with STAT5 (setting [4]) is 100 to 1000 nM; with STAT5 (setting [3]), below 100 nM; with STAT5 (setting [2]) it was 100 to 1000 nM; at STAT6 (class symbols), above 10000 nM.
